Results reported in PubChem BioAssay (NCI).
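Values below derive from 48-hour exposures of cells grown in 96-well plates, with endpoints linearly interpolated between the two concentrations bracketing the appropriate inhibition level. The concentration for 50% growth inhibition is given as GI50. TGI: concentration producing complete growth inhibition.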

Columns and labels:
Assay in all cases: NCI anticancer screen, dose series, 48 h
UO-31 renal = test system: UO-31 renal
KM12 colon = test system: KM12 colon
IGROV1 ovarian = test system: IGROV1 ovarian
HCT-15 colon = test system: HCT-15 colon
T-47D breast = test system: T-47D breast
PC-3 prostate = test system: PC-3 prostate
LOX IMVI melanoma = test system: LOX IMVI melanoma
OVCAR-8 ovarian = test system: OVCAR-8 ovarian
HOP-18 NSCLC = test system: HOP-18 NSCLC

Row | SMILES | GI50 (UO-31 renal) | TGI (UO-31 renal) | GI50 (KM12 colon) | TGI (KM12 colon) | GI50 (IGROV1 ovarian) | TGI (IGROV1 ovarian) | GI50 (HCT-15 colon) | TGI (HCT-15 colon) | GI50 (T-47D breast) | TGI (T-47D breast) | GI50 (PC-3 prostate) | TGI (PC-3 prostate) | GI50 (LOX IMVI melanoma) | TGI (LOX IMVI melanoma) | GI50 (OVCAR-8 ovarian) | TGI (OVCAR-8 ovarian) | TGI (HOP-18 NSCLC) | GI50 (HOP-18 NSCLC)
1 | COc1ccc(Oc2nc(Nc3ccc(N4CCOCC4)cc3)ncc2NC(=O)Nc2cc(OC)cc(OC)c2)cc1 | 5.33 µM | 24.8 µM | 1.82 µM | 15.3 µM | 4.45 µM | 13.9 µM | 15.4 µM | > 33.3 µM | 5.13 µM | > 33.3 µM | 2.39 µM | 14.2 µM | 3.59 µM | 12.6 µM | 4.65 µM | > 33.3 µM |  | 
2 | CS(=O)/C(C#N)=C\C=C\c1cccc(Cl)c1 (centres undefined) | 1.97 µM | 6.56 µM | 1.42 µM | 4 µM | 2.08 µM | 10.3 µM | 1.11 µM | 4.04 µM | 2.67 µM | 17 µM | 2.68 µM | 12.8 µM | 1.31 µM | 2.73 µM | 3.78 µM | 17.9 µM |  | 
3 | Cc1ccc(-c2c3c(N)nc(-c4ccncc4)nc3nc3c2c(C)nn3-c2ccccc2)cc1 | > 37.5 µM | > 37.5 µM | 31.4 µM | > 37.5 µM | 22.5 µM | > 37.5 µM | 13.6 µM | > 37.5 µM | 1.84 µM | > 37.5 µM | 32.3 µM | > 37.5 µM | 2.33 µM | 14.5 µM | 3.63 µM | > 37.5 µM |  | 
4 | O=c1[nH]cc(CO)c(=O)[nH]1 | > 100 µM | > 100 µM | > 100 µM | > 100 µM | > 100 µM | > 100 µM | > 100 µM | > 100 µM | > 100 µM | > 100 µM | > 100 µM | > 100 µM | > 100 µM | > 100 µM | > 100 µM | > 100 µM |  | 
5 | Cc1nn2c(=O)n(-c3cccc(-n4nnc5c(-c6ccccc6)c(C)nn5c4=O)c3C)nnc2c1-c1ccccc1 |  | > 100 µM |  |  |  | > 100 µM |  | 63.8 µM |  |  |  |  |  | > 100 µM |  | > 100 µM | > 100 µM | 
6 | O=C(NCCSSCCNC(=O)/C(Cc1ccc(O)c(Br)c1)=N/O)/C(Cc1ccc(O)c(Br)c1)=N/O |  | 8.58 µM |  | 10.5 µM |  | 7.15 µM |  | 14.4 µM |  | 13.1 µM |  | 8.21 µM |  | 3.31 µM |  | > 50 µM |  | 
7 | Cc1cc2oc(=O)c(Cl)c(Cl)c2c(C)c1Cl |  | 25.3 µM |  | 29.4 µM |  | 15.8 µM |  | 14.3 µM |  | 40.2 µM |  | 23.6 µM |  | 8.84 µM |  | 10.4 µM |  | 
8 | [CH3][Sn]([CH3])([CH3])[O]C(=O)C(O)c1ccccc1 (centres undefined) | 4.16 µM | 31.5 µM | 8.78 µM | > 100 µM | 8.47 µM | > 87.3 µM | 3.57 µM | 19.1 µM | 12.7 µM | > 100 µM | 2.4 µM | > 100 µM | 2.85 µM | 8.53 µM | 4.65 µM | > 54.9 µM | > 100 µM | > 100 µM
